Assays:
[1] = Sensory testing of sweetener acids in foods and drinks; details: in vivo
Excerpt: Sweetener acids are the acids of known salts of high-intensity sweeteners such as acesulfame-K (=potassium salt of acesulfamic acid), sodium cyclamate or sodium saccharin. Sweetener acids which can be used are, for example, saccharin acid, cyclamic acid, glycyrrhicic acid and acesulfamic acid and also mixtures of two or more of these acids. Inventively preferred sweetener acids are acesulfamic acid, cyclamic acid and saccharin acid, and also mixtures of two or all three sweetener acids. On account of their low pKa of 1.5 to 2.5, the sweetener acids have never previously been considered as […]. […] The acid profile is balanced.
At the same time, the sweetener acids have, on a molar basis, a sweetening power equivalent to the corresponding sweetener salt. In addition to the described acid taste and sweet taste, no significant off-taste and aftertaste occur.

[2] = pH of the test solutions and drinks
[3] = test system: testers; assay: Pairwise comparison test for identical acid taste
Excerpt: Pairwise comparison test with the question: Which sample is the more acid: (forced choice, n=13)
Pairwise comparison test with the question: Which sample is the more acid? (forced choice, n=15)

| SMILES | time-intensity profile of the acid taste [1] | pH ([2]; Example 1, identical acid taste solutions (Table 3)) | pH ([2]; Example 4, identical acid taste solutions (Table 9)) | citric acid concentration of identical acid taste ([3]; Example 1, vs 203 mg/l acesulfamic acid, citric acid + 250 mg/l acesulfame-K, n=13) | acetic acid concentration of identical acid taste ([3]; Example 4, vs 203 mg/l acesulfamic acid, acetic acid + 250 mg/l acesulfame-K, n=14) | pH ([2]; Example 3, identical acid taste solutions (Table 7)) | citric acid concentration of identical acid taste ([3]; Example 3, vs 200 mg/l saccharin acid, citric acid + 225 mg/l saccharin sodium, n=15) |
| --- | --- | --- | --- | --- | --- | --- | --- |
| CC1=CC(=O)NS(=O)(=O)O1 [Acesulfamic acid] | comparable to that of malic acid | 3.07 | 3.07 | 137 mg/L | 190 mg/L |  |  |
| O=C1NS(=O)(=O)c2ccccc21 [Saccharin acid, o-benzosulfimide] |  |  |  |  |  | 3.05 | 100 mg/L |
